Experimental data: ChEMBL document CHEMBL3638993, “Dihydrofolate reductase inhibitors” (2014)

How the values were obtained:
[1] = biological target: T1, Dihydrofolate reductase (Homo sapiens, UniProt P00374); experiment: (§1) Inhibition Assay: Antibacterial activity as measured by the minimal inhibitory concentrations (MIC) and minimal bactericidal concentrations of compounds are well known (see., e.g., National Committee for Clinical Laboratory Standards 2000 Performance standards for antimicrobial disk susceptibility tests: approved standard, 7th ed. M2-A7, vol. 20, no. 1, Committee for Clinical Laboratory Standards, Wayne, Pa.).
T1 sequence (P00374 whole entry): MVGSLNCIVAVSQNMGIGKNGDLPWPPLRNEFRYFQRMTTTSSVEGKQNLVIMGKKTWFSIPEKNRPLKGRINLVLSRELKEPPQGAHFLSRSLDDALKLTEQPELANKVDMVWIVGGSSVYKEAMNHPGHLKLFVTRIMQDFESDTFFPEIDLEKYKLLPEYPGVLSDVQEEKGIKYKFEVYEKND

[2] = biological target: Dihydrofolate reductase (Staphylococcus aureus, UniProt P0A017); experiment: as §1
Dihydrofolate reductase (Staphylococcus aureus, UniProt P0A017), sequence (P0A017 whole entry): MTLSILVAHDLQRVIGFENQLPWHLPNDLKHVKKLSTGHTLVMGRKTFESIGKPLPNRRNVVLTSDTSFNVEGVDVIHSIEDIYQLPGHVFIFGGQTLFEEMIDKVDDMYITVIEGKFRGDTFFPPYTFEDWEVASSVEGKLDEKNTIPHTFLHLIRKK

SMILES: Cc1c(C(=O)OC(C)(C)C)nc(-c2cccs2)n1-c1ccc2c(N)nc(N)nc2c1
- Ki [1]: 1910 nM
- Ki [2]: 0.2 nM
